Test results taken from paper PMC9995496, “A screen for MeCP2-TBL1 interaction inhibitors using a luminescence-based assay” (Scientific Reports, 2023).
Ends that are not written are not given here. * marks the point of attachment. Biotin = O=C1N[C@H]2[C@H](CS[C@H]2CCCCC(=O)*)N1

Biological target: T1, MeCP2-TBL1 interaction (MeCP2-SmBiT / TBL1-LgBiT) (Mus musculus, UniProt Q9QXE7)
T1 construct: expressed in transfected cells; crude lysate used as a cell-free assay
T1 sequence (Q9QXE7 166-527): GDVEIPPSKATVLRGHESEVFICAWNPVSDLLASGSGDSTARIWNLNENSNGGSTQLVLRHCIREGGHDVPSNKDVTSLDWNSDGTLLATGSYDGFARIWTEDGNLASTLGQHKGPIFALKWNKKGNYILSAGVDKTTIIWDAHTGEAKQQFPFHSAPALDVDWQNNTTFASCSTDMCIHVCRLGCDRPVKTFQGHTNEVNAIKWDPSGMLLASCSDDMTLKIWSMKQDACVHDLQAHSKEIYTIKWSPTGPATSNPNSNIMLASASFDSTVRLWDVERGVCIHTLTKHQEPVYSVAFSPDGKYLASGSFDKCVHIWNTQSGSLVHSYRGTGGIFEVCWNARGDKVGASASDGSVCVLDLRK
Assay: MeCP2-TBL1 NanoLuc luciferase complementation assay (cell-free, extracts of transfected HEK293 cells)
Format: binding, human
Settings: for inhibition in MeCP2-TBL1 assay compared with control PKA-based assay, individual validation: n = 7, t-test; for separation between MeCP2-TBL1 inhibition and inhibition of the PKA control in dose response / extent of MeCP2-TBL1 inhibition reached within the tested concentration range: 0.3–60 μM; for separation between MeCP2-TBL1 inhibition and inhibition of the PKA control in dose response: PKA-based assay run in parallel; for inhibition at 20 µM: ApexBio library screen, threshold SSMD* ≥ 3, read-out: inhibition in MeCP2-TBL1 assay after adjusting for activity in the PRKACA-PRKAR2A assay; for IC50: dose response 0.3–60 μM, triplicate, 30 min, luminescence normalized to DMSO, read-out: IC50, inhibition of MeCP2-TBL1 luminescence signal
Outline: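 Cell-free split NanoLuc: lysate of HEK293 cells co-expressing the MeCP2 C-terminal half-SmBiT and TBL1 WD domain-LgBiT, mixed 1:1 with furimazine. After 30 min at room temperature, luminescence was plate-median normalized.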

[1] = primary screen of the Asinex library, sheet "Sargen output Asinex library", one well per compound
[2] = primary screen of the Asinex library, sheet "Sargen output Asinex library", one well per compound, Batch Ref. 1
[3] = primary screen of Asinex library, single well per compound

## CC(C)c1nccn1CCC(=O)N1[C@H](Cc2ccccc2)C[C@]2(C)NC(=O)CCC[C@H]12 [BDH_33632337]
[1]
  Inhibition percent: 1.15%

## COc1cc2c(cc1[C@H]1C[C@@H](NC(C)=O)CC3(CCCCC3)O1)OCCCO2 [BDH_33665894]
[2]
  Inhibition percent: 2.60%

## COc1cccc([C@H]2C[C@@](C)(NC(=O)C(C)C)[C@@H]3CC[C@@H](C)C[C@H]3O2)c1OCCN(C)C [BDH_33687810]
[1]
  Inhibition percent: -1.87%

## CC(C)(O)[C@@H]1CC[C@](C)([C@H]2CC3(CCN(C(=O)c4ccc(-c5ccc(S(C)(=O)=O)cc5)cc4)CC3)CO2)O1 [BDH_33696510]
[2]
  Inhibition percent: 0.0118%

## COc1cccc(CN2CCC3(C/C=C/COc4ccccc4C(=O)NCCNC3=O)CC2)c1F [BDH_33701964]
[2]
  Inhibition percent: -0.89%

## O=C1NCCNC(=O)C2(C/C=C/COc3ccccc31)CCN(C(=O)CCc1cccs1)CC2 [BDH_33701979]
[2]
  Inhibition percent: 4.94%

## O=C1CNC(=O)C2(C/C=C/C[C@H]3COCC[C@H]3N1)CCN(c1ncccn1)CC2 [BDH_33727647]
[3]
  Inhibition percent: -1.79

## O=C1CNC(=O)C2(C/C=C/C[C@H]3COCC[C@H]3N1)CCN(C(=O)/C=C/c1ccccc1)CC2 [BDH_33728358]
[1]
  Inhibition percent: -2.28%

## O=C1CNC(=O)C2(C/C=C/C[C@H]3COCC[C@@H]3N1)CCN(C(=O)COc1ccccc1)CC2 [BDH_33728395]
[1]
  Inhibition percent: -3.47%

## Cc1ncc(C(=O)N2CCC[C@@H]3[C@H]2C/C=C/Cc2ccccc2OCC(=O)N3C)c(C)n1 [BDH_33728424]
[1]
  Inhibition percent: -2.62%

## Cc1nc(C(=O)N2CCCC3(C/C=C/COc4ccccc4C(=O)NCCNC3=O)C2)co1 (centres unmarked) [BDH_33731677]
[2]
  Inhibition percent: -0.08%

## CC(=O)N1CCC2(C/C=C/C[C@H]3CN(C(=O)Cc4cccc(F)c4)CC[C@H]3NC(=O)CNC2=O)CC1 [BDH_33732909]
[1]
  Inhibition percent: -2.58%

## Cc1nn(C)cc1CCC(=O)N1CCC[C@@H]2NC(=O)c3ccccc3OCCCCC[C@@H]21 [BDH_33734258]
[3]
  Inhibition percent: -1.51

## O=C1COc2ccccc2CCCC[C@@H]2CN(C(=O)CCCn3cccn3)CC[C@H]2N1 [BDH_33762630]
[1]
  Inhibition percent: 0.76%

## CC(C)C[C@H](NC(=O)OCc1ccccc1)C(=O)N1CCC2(CC1)CO[C@@H]([C@@]1(C)CC[C@H](O)C(C)(C)O1)C2 [BDH_33767587]
[1]
  Inhibition percent: -2.43%

## Cc1cnn(CC(=O)N2CCC3(C/C=C/CCOc4ccccc4C(=O)NCCCNC3=O)CC2)c1 [BDH_33775476]
[2]
  Inhibition percent: 1.29%

## Cn1nccc1CN[C@@H]1C[C@@H](Oc2ccccc2)[C@H](O)[C@H]1N1CCN(c2ccccc2)CC1 [BDH_33787192]
[3]
  Inhibition percent: -0.36

## C[C@@]12C[C@H](c3ccccc3)N(C(=O)CCc3c[nH]c4ccccc34)[C@@H]1CCC[C@@H](O)[C@H]2O [BDH_33903568]
[2]
  Inhibition percent: 3.00%

## CC(C)(C)OC(=O)N1[C@@H](CNC(=O)CCc2c[nH]c3ccccc23)C[C@@]2(C)[C@@H](O)CCCC[C@@H]12 [BDH_33903570]
[2]
  Inhibition percent: 3.52%

## CN(C)c1ccccc1C(=O)N(C)[C@H]1CC[C@@]2(CCO)C[C@H](c3ccccc3)C[C@](C)(O2)[C@@H]1O [BDH_33903744]
[3]
  Inhibition percent: 1.99

## C[C@@]12C[C@H](c3ccccc3)N(C(=O)CCCn3cccn3)[C@@H]1CCC[C@@H](O)[C@@H]2O [BDH_33903800]
[3]
  Inhibition percent: 0.83

## CC(C)(C)OC(=O)NCCC(=O)N(Cc1ccccc1)C[C@@H]1C[C@@H](n2ccc(=O)[nH]c2=O)[C@@H](O)[C@@H]1O [BDH_33952010]
[1]
  Inhibition percent: -1.46%

## CC(C)=CCC[C@]1(C)Oc2c(OCCOCCO)cccc2[C@H]2O[C@H]3CCN(C(=O)OC(C)(C)C)C[C@@H]3C[C@@H]21 [BDH_33957239]
[2]
  Inhibition percent: 4.83%

## CC(C)=CCC[C@]1(C)Oc2cc(OCC(N)=O)ccc2[C@H]2OC[C@@]3(CCCN(C(=O)OC(C)(C)C)C3)C[C@@H]21 [BDH_33958782]
[2]
  Inhibition percent: 7.79%

## CC(C)=CCC[C@]1(C)Oc2cc(OCC(=O)O)ccc2[C@H]2OCC3(CCN(C(=O)OC(C)(C)C)CC3)C[C@@H]21 [BDH_33958802]
[1]
  Inhibition percent: 4.22%

## CC(C)(C)OC(=O)N(Cc1ccccc1)C[C@@H]1C[C@H](O)[C@H](O)[C@H]1n1cnc2c(N)ncnc21 [BDH_34018090]
[1]
  Inhibition percent: -1.62%

## O=C(NCCc1ccccc1)[C@@H]1[C@H](O)[C@@H](c2ccc(F)cc2)CN1C(=O)Cc1c[nH]c2ccccc12 [BDH_34023215]
[3]
  Inhibition percent: 2.61

## CCCCC[C@]1(O)CCN(S(=O)(=O)c2ccccc2)C[C@@H]1Oc1cccc(F)c1 [BDH_34032183]
[2]
  Inhibition percent: 9.13%

## CC(C)C[C@H]1CN(C(=O)CCn2c(=O)oc3cc(Cl)ccc32)CC[C@H]1Nc1cccc(F)c1 [BDH_34035644]
[2]
  Inhibition percent: 1.76%

## COCCC(=O)N[C@@]1(C)C[C@@H](c2ccc(F)cc2)O[C@@H](c2ccc(N3CCCC3=O)cc2)C1 [BDH_34036118]
[3]
  Inhibition percent: 3.23

## COCCC(=O)N[C@]1(C)C[C@@H](c2ccc(Cl)cc2)O[C@@H](c2cc(Br)ccc2O)C1 [BDH_34036884]
[3]
  Inhibition percent: 5.22

## CN(C)CCOc1ccc(C(=O)N(C)CC2(O)CCCN(c3ccnc4ccncc34)C2)cc1 (centres unmarked) [BDH_34040371]
[3]
  Inhibition percent: -4.15

## CCc1nnsc1C(=O)NC[C@]1(c2ccccc2)CC[C@@H](O)[C@H](N2CCOCC2)CC1 [BDH_34124703]
[1]
  Inhibition percent: 0.50%

## COc1cccc(C2CN(Cc3ccccc3)C(=O)C23CCN(Cc2cccc(C(=O)O)c2)CC3)c1 (centres unmarked) [BDH_34129947]
[3]
  Inhibition percent: -0.66

## COc1cccc(C2CN(Cc3ccccc3)C(=O)C23CCN(Cc2ccc(C(=O)O)cc2)CC3)c1 (centres unmarked) [BDH_34130105]
[3]
  Inhibition percent: 0.45

## COc1cccc(C2CN(Cc3ccccc3)C(=O)C23CCN(Cc2ccccc2C(=O)O)CC3)c1 (centres unmarked) [BDH_34130263]
[3]
  Inhibition percent: 5.00

## CC1(C)Oc2ccccc2[C@@H]2O[C@@H]3CCN(C(=O)c4cccc(Cn5ccnc5)c4)C[C@]3(CO)C[C@H]21 [BDH_34133896]
[2]
  Inhibition percent: 6.91%

## CC(=O)N1CCC(C(=O)N[C@@H]2C[C@@H](Oc3cccc(F)c3)[C@H](O)[C@H]2N(C)Cc2ccccc2)CC1 [BDI_34055064]
[1]
  Inhibition percent: 0.18%

## COc1ccc(CN(C)[C@@H]2[C@@H](O)[C@H](Oc3cccc(F)c3)C[C@H]2NC(=O)CCC(N)=O)cc1 [BDI_34058033]
[2]
  Inhibition percent: -0.09%

## CN(Cc1ccccc1)[C@@H]1[C@@H](O)[C@H](Oc2cccc(C(F)(F)F)c2)C[C@H]1NC(=O)c1cocn1 [BDI_34061115]
[2]
  Inhibition percent: 4.93%

## CN(C)Cc1cccc(N/C(=C2\C(=O)Nc3cc(C(=O)N(C)C)ccc32)c2ccccc2)c1 [BIX02189, reference compound]
20 µM
  inhibition in MeCP2-TBL1 assay compared with control PKA-based assay, individual validation: did not have a statistically different effect
  inhibition at 20 µM: ≥ 35%
  separation between MeCP2-TBL1 inhibition and inhibition of the PKA control in dose response: only modest selectivity
  IC50: 28 µM

## O=C1C(Cl)=C(N2CCOCC2)C(=O)N1c1ccc(Cl)c(Cl)c1 [RI-1, reference compound]
ApexBio FDA-approved Drug Library screen, 20 µM
  Inh (MeCP2-TBL1): 13.6055

## CCNC(=O)c1noc(-c2cc(C(C)C)c(O)cc2O)c1-c1ccc(CN2CCOCC2)cc1 [luminespib, reference compound]
20 µM
  inhibition in MeCP2-TBL1 assay compared with control PKA-based assay, individual validation: statistically significantly greater
  inhibition at 20 µM: ≥ 35%
  extent of MeCP2-TBL1 inhibition reached within the tested concentration range: without being able to completely inhibit MeCP2-TBL1 binding
  separation between MeCP2-TBL1 inhibition and inhibition of the PKA control in dose response: clear separation
  IC50: 31 µM

## C=C1C(=O)[C@]23[C@H](O)[C@H]1CC[C@H]2[C@@]12CO[C@]3(O)[C@@H](O)[C@@H]1C(C)(C)CC[C@@H]2O [oridonin, reference compound]
20 µM
  inhibition in MeCP2-TBL1 assay compared with control PKA-based assay, individual validation: statistically significantly greater
  inhibition at 20 µM: ≥ 35%
  separation between MeCP2-TBL1 inhibition and inhibition of the PKA control in dose response: only modest selectivity
  IC50: 34 µM

## LSSWVLLMK [AAT, alpha-1 antitrypsin fragment 235–243, reference compound]
20 µM
  inhibition in MeCP2-TBL1 assay compared with control PKA-based assay, individual validation: statistically significantly greater
  inhibition at 20 µM: ≥ 35%
  extent of MeCP2-TBL1 inhibition reached within the tested concentration range: able to return the luminesce signal back to baseline
  separation between MeCP2-TBL1 inhibition and inhibition of the PKA control in dose response: clear separation

## control peptide with the R306C mutation: 35 amino acid MeCP2 NID peptide (residues 285-319) carrying the R306C mutation, N-terminal biotin (Biotin-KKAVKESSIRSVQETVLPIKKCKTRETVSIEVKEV; UniProt P51608 285-319, looked up, variant R306C) [reference compound]
Peptide at 20 µM, n = 2
  effect of competitor peptide on MeCP2-TBL1 luminescence signal: failed to substantially affect
